This test concerns TCR specific for the citrullinated fibrinogen peptide. Nature of the test: activation of 58−/− T cell line expressing cit-fib specific TCR by peptide-loaded HLA-DRB1*04:01 monomers (NFAT-GFP reporter, PD1 expression). It counts as cell-based, human. To be noted: peptide presented on HLA-DRB1*04:01, 48 h; for TCR-dependent NFAT mediated activation of T cells: GFP reporter, FIG. 3; for TCR-dependent PD1 expression: anti-mouse PD-1 staining, FIG. 4. As for the experimental part:
58−/− cell line expressing cit-fib specific TCRs in ametrine expressing vector, along with co-expression of human CD4 and GFP as a reporter for NFAT expression.
HLA-DRB1*04:01 monomeric protein (500 μg/mL) was incubated for 72 h at 37° C. with different versions of fib69-81 peptide (test) and VimX71 peptide (control) in sodium phosphate buffer (1×) containing n-octyl β-D-Glucopyranoside (Sigma-Aldrich, USA) and Pefabloc SC (Sigma-Aldrich, USA), and then stored at 4° C. until used. Loaded HLA monomers were subsequently coated (0.03-2 μg/well) onto 48-well plates in 100 μl PBS for 4 h at 37° C. The HLA/peptide solution was subsequently flicked of the plate and specific T cells (5×104) and anti-CD28 (1 μg/well) were added to the monomer-coated wells and incubated for 48 h at 37° C. before collecting cells.
As positive controls, anti-mouse anti-CD3 (BioLegend #100314), anti-CD28 (BioLegend #101112) were used.
PD1 expression on 58−/− cells was assessed using anti-mouse PD-1 PE-Cy7 antibody, while NFAT activation was studied using assessment of GFP expression following cell stimulation. Human CD4+ametrine+ viable singlets were used as population to look for expression of NFAT and PD1.

Where no end group is shown, it is not given here. [ ]: non-standard residue; d: D form. Cit = NC(=O)NCCC[C@H](N)C(=O)O

Take “GGFRAQPAKAAAT [FibF71Q74, fibrinogen 69-81 mimic, glutamine in position 74 and phenylalanine in position 71]”: the “TCR-dependent NFAT mediated activation of T cells” value is “equally capable of triggering T cell activation as the original citrullinated peptide” and the “TCR-dependent PD1 expression” value is listed as “equally capable of triggering T cell activation as the original citrullinated peptide”.
In the case of “GGFRAXPAKAAAT (GGFRA[Cit]PAKAAAT; ends and bridges not checked) [FibF71X74]”, the “TCR-dependent NFAT mediated activation of T cells” value is given as “equally capable of triggering T cell activation as the original citrullinated peptide” and the “TCR-dependent PD1 expression” value is “equally capable of triggering T cell activation as the original citrullinated peptide”.
With “GGYRAQPAKAAAT [FibQ74, fibrinogen 69-81 mimic, a glutamine in position 74]”, the “TCR-dependent NFAT mediated activation of T cells” value is given as “equally capable of triggering T cell activation as the original citrullinated peptide” and the “TCR-dependent PD1 expression” value is given as “equally capable of triggering T cell activation as the original citrullinated peptide”.

The values are drawn from US20250340616A1, “NOVEL PEPTIDE MIMICS AND THEIR USE” (STIFTELSEN VECTIS, priority 2021, published 2025).
